Experimental data taken from US6734186B1, “Compounds for the treatment of female sexual dysfunction” (Pfizer Inc., priority 1999, dated 2004).

Columns and labels:
[1] = tested on: anaesthetised rabbit model of sexual arousal; test: Enhancement of pelvic nerve stimulated (PNS) increases in vaginal blood flow, anaesthetised rabbit model; type: in vivo; conditions: for effect on pelvic nerve stimulated increases in vaginal blood flow: at clinically relevant doses
From the text: (§1) A ventral midline incision was made into the abdominal cavity. The incision was about 5 cm in length just above the pubis. The fat and muscle was bluntly dissected away to reveal the hypogastric nerve which runs down the body cavity. It was essential to keep close to the side curve of the pubis wall in order to avoid damaging the femoral vein and artery which lie above the pubis. The sciatic and pelvic nerves lie deeper and were located after further dissection on the dorsal side of the rabbit. Once the sciatic nerve is identified, the pelvic nerve was easily located. The term pelvic nerve is loosely applied; anatomy books on the subject fail to identify the nerves in sufficient detail. However, stimulation of the nerve causes an increase in vaginal and clitoral blood flow, and innervation of the pelvic region. The pelvic nerve was freed away from surrounding tissue and a Harvard bipolar stimulating electrode was placed around the nerve. The nerve was slightly lifted to give some tension, then the electrode was secured in position. Approximately 1 ml of light paraffin oil was placed around the nerve and electrode. This acts as a protective lubricant to the nerve and prevents blood contamination of the electrode. The electrode was connected to a Grass S88 Stimulator. The pelvic nerve was stimulated using the following parameters: −5V, pulse width 0.5 ms, duration of stimulus 10 seconds and a frequency range of 2 to 16 Hz. Reproducible responses were obtained when the nerve was stimulated every 15-20 minutes.
(§2) A frequency response curve was determined at the start of each experiment in order to determine the optimum frequency to use as a sub-maximal response, normally 4 Hz. The compound(s) to be tested were infused, via the femoral vein, using a Harvard 22 infusion pump allowing a continuous 15 minute stimulation cycle.
(§3) A ventral midline incision was made, at the caudal end of the pubis, to expose the pubic area. Connective tissue was removed to expose the tunica of the clitoris, ensuring that the wall was free from small blood vessels. The external vaginal wall was also exposed by removing any connective tissue. One laser Doppler flow probe was inserted 3 cm into the vagina, so that half the probe shaft was still visible. A second probe was positioned so that it lay just above the external clitoral wall. The position of these probes was then adjusted until a signal was obtained. A second probe was placed just above the surface of a blood vessel on the external vaginal wall. Both probes were clamped in position.
(§4) Vaginal and clitoral blood flow was recorded either as numbers directly from the Flowmeter using Po-ne-mah data acquisition software (Ponemah Physiology Platform, Gould Instrument Systems Inc), or indirectly from Gould chart recorder trace. Calibration was set at the beginning of the experiment (0-125 ml/min/100 g tissue).
(§5) NEP (Neutral Endopeptidase EC3.4.24.11; Sequence No. 1) inhibitors, phosphodiesterase type 5 (PDE5) inhibitors and NPY Y1 antagonists were made up in saline or 5% glucose solution (200 μl 50% glucose in 1.8 ml water for injection). PDEcAMP inhibitors were dissolved in a 40% ethanol solution (200 μl 50% glucose in 1.8 ml water/ethanol for injection).

[2] = tested on: isolated rabbit vagina; test: Enhancement of VIP-induced relaxation of precontracted isolated rabbit vagina by test agents; type: cell-based; conditions: for Percentage enhancement of VIP(Sequence No. 8)-induced relaxation: PDE inhibitor at selective dose, isolated rabbit vagina, 1 μM phenylephrine; for effect on VIP-induced and nerve-mediated relaxations of isolated tissue: at clinically relevant doses
Procedure: (§6) 3.7 (a). Rabbit vagina in vitro preparation:—Female New Zealand white rabbits (2.0-3.0 kg) were killed by cervical dislocation. The abdominal cavity was opened and the vagina excised. Tissue strips were mounted longitudinally in Wesley Co. 5 ml silanised organ chambers with braided silk sutures (6/0 gauge) at an initial resting tension of 1.5 g in Krebs bicarbonate buffer maintained at 37° C. and gassed with 95%O2/5%CO2. The upper ligature of each tissue strip was attached to a 10 g capacity force-displacement transducer and changes in isometric force were measured and recorded using a DART in vitro data capture system. Tissues were allowed to equilibrate for 1.5 hours and were regularly washed with Krebs.
(§7) Each tissue was contracted using 1 μM bath concentration of phenylephrine. […] Tissues then received either a test agent (eg NEP or PDE inhibitor) or DMSO vehicle (time matched control).
(§8) For the purpose of curve fitting the minimum relaxation response was constrained to 0% and the maximum relaxation response was allowed to free fit.

[3] = tested on: anaesthetised rabbit model of sexual arousal; test: Enhancement of VIP-induced increases in vaginal blood flow, anaesthetised rabbit model; type: in vivo; conditions: for effect on VIP-induced increases in vaginal blood flow: at clinically relevant doses
From the text: as §3, §4
An initial infusion of Hepsaline (50UI/ml) was infused to act as a negative control.
as §5

[4] = tested on: isolated rabbit vagina; test: Electrical field stimulated (EFS) relaxation of isolated rabbit vagina; type: cell-based
Procedure: Rabbit vaginal strips were prepared as described in Section 3.7 (a). The tissue strips were mounted between two platinum electrodes placed at the top and bottom of the organ chamber approximately 4 cm apart. Each tissue was contracted using 1 μM bath concentration of phenylephrine. When the contractile response reached a stable plateau (15 minutes), the tissues underwent a pre-treatment electrical field stimulated (EFS) induced relaxation curve. This was performed between 40-60 volts using sequential frequencies of 2, 4, 8 and 16 Hz delivered as 10 second trains of 0.5 milli second pulse width. The tissues were allowed to return to base line pre-contractile tension between each frequency (5 minutes) and the size of the relaxation response recorded.
After completion of the pre-treatment EFS response curve, all tissues were washed for 15 minutes, allowing the tissues to return to the baseline tension. Tissues then received either a test agent (eg NEP or PDE inhibitor, nitric oxide synthase [NOS] inhibitor) or DMSO vehicle (time matched control). Tissues were re-contracted with phenylephrine (1 μM) 15 minutes after the addition of compound or vehicle and an EFS-induced relaxation response curve determined as described above. […]

[5] = tested on: anaesthetised rabbit model of sexual arousal; test: Enhancement of pelvic nerve stimulated increases in clitoral blood flow, anaesthetised rabbit model; type: in vivo
From the text: as §1
as §2, with “cycle. […]” for “cycle.”
Vaginal and clitoral blood flow was recorded either as numbers directly from the Flowmeter using Po-ne-mah data acquisition software (Ponemah Physiology Platform, Gould Instrument Systems Inc), or indirectly from Gould chart recorder trace. […]

[6] = tested on: anaesthetised rabbit model of sexual arousal; test: Increase in clitoral blood flow after iv infusion of vasoactive agents, anaesthetised rabbit model; type: in vivo; conditions: forskolin 40 nmol/kg iv
From the text: as §3, §4

[7] = tested on: isolated rabbit vagina; test: Relaxation of precontracted (1 μM phenylephrine) isolated rabbit vaginal strips; type: cell-based; conditions: Oryctolagus cuniculus, precontracted with 1 μM phenylephrine
Procedure: as §6, §7, §8

## COc1ccc(Cc2nc3c(ncn3C(CCCc3ccccc3)C(C)=O)c(=O)[nH]2)cc1OC (centres unmarked) [FII, 9-(1-acetyl-4-phenylbutyl)-2-[(3,4-dimethoxyphenyl)methyl]-1,9-dihydro-6H-purin-6-one]
[1]; 200 μg/kg, 4 Hz
  enhancement of peak increase in blood flow induced by pelvic nerve stimulation: circa 15±3%
[1]; 500 μg/kg iv, 4 Hz
  enhancement of peak increase in PNS vaginal blood flow: 86.8±21.9%
[1]
  effect on pelvic nerve stimulated increases in vaginal blood flow: enhances
[2]
  Percentage enhancement of VIP(Sequence No. 8)-induced relaxation: 130%
[2]; inhibitor at 8 nM
  potentiation of VIP EC50 values: 130%
[3]; 200 μg/kg
  enhancement of peak increase in blood flow induced by VIP-stimulation: circa 15±3%
[3]; VIP 60 μg/kg, measured at 50% amplitude
  enhancement of duration of VIP-induced increases in peak vaginal blood flow: over 100%
[3]
  effect on VIP-induced increases in vaginal blood flow: enhances
[3]; inhibitor 25 μg/kg iv bolus, VIP 60 μg/kg iv bolus
  effect on VIP-induced enhanced vaginal blood flow: potentiates the duration

## Cc1nc(O)c(C#N)cc1-c1ccncc1 [FIII, Milrinone]
[2]
  Percentage enhancement of VIP(Sequence No. 8)-induced relaxation: 220%
[2]; inhibitor at 3.4 μM
  potentiation of VIP EC50 values: 220%

## COc1ccc(C2CNC(=O)C2)cc1OC1CCCC1 (centres unmarked) [FIV, Rolipram]
[2]
  Percentage enhancement of VIP(Sequence No. 8)-induced relaxation: 160%
[2]; inhibitor at 686 nM
  potentiation of VIP EC50 values: 160%

## C=CCC(CC1(C(=O)NC2CCCC(C(=O)OCC)C2)CCCC1)C(=O)O (centres unmarked) [FV, cyclohexanecarboxylic acid, 3-[[[1-(2-carboxy-4-pentenyl)cyclopentyl]carbonyl]amino]-,1-ethyl ester]
[1]
  effect on pelvic nerve stimulated increases in vaginal blood flow: enhance
[2]
  effect on VIP-induced and nerve-mediated relaxations of isolated tissue: enhance
[3]
  effect on VIP-induced increases in vaginal blood flow: enhance

## C=CCC(CC1(C(=O)NC2CCCC(C(=O)O)C2)CCCC1)C(=O)O (centres unmarked) [FVI, cyclohexanecarboxylic acid, 3-[[[1-(2-carboxy-4-pentenyl)cyclopentyl]carbonyl]amino]-]
[4]; 1 μM
  effect on non-nitric oxide NANC relaxation induced by EFS: enhances
[1]; 0.1 mg/kg iv, submaximal stimulation 4 Hz
  enhancement of peak increase in PNS vaginal blood flow: 35.0±7.6%
[1]; 0.3 mg/kg iv, submaximal stimulation 4 Hz, listed as NEP inhibitor
  enhancement of peak increase in PNS vaginal blood flow: 40%
[1]
  effect on pelvic nerve stimulated increases in vaginal blood flow: enhance
[1]; compared to time matched control increases
  maximal enhancement of peak increase in PNS vaginal blood flow (up to): up to 53%
[1]; no pelvic nerve stimulation
  effect on basal (unstimulated) vaginal blood flow: no effect
[2]
  effect on VIP-induced and nerve-mediated relaxations of isolated tissue: enhance
[5]; 1.0 mg/kg iv, 4 Hz
  enhancement of peak increase in PNS clitoral blood flow: 131%
[5]; compared to vehicle control increases
  maximal enhancement of peak increase in PNS clitoral blood flow (up to): up to 131%
[5]; no pelvic nerve stimulation
  effect on basal (unstimulated) clitoral blood flow: no effect
[3]; VIP dose producing maximal flow increases
  increase in duration of VIP-induced elevation of vaginal blood flow: circa 80%
[3]; VIP dose producing maximal flow increases, 11 minutes without inhibitor
  duration of VIP-induced elevation in presence of inhibitor: 20 min
[3]
  effect on VIP-induced increases in vaginal blood flow: enhance
[3]; maximal VIP 60 μg/kg
  effect on VIP-induced enhanced vaginal blood flow: only potentiate the duration
[3]; submaximal VIP 6.0 μg/kg
  effect on VIP-induced enhanced vaginal blood flow: both potentiates the amplitude and prolongs the duration
  potentiation of peak VIP-induced increase in vaginal blood flow: 95±6%
  prolongation of duration of VIP-induced increase in vaginal blood flow: circa 140%
[3]; submaximal VIP 6.0 μg/kg, 7 minutes without inhibitor
  duration of VIP-induced increase in presence of inhibitor: > 17 min

## NC(=NCCC[C@H](N)C(=O)O)N[N+](=O)[O-] [L-NOARG]
[4]; 300 μM
  inhibition of EFS-induced relaxations: 50%

## C=C[C@@]1(C)CC(=O)[C@]2(O)[C@@]3(C)[C@@H](O)CCC(C)(C)[C@@H]3[C@H](O)[C@H](OC(C)=O)[C@@]2(C)O1 [forskolin]
[6]
  increase in clitoral blood flow: 156%
[7]; FIG. 4c
  IC50: ~300 nM
[7]; read-out: EC50 for relaxation in isolated vaginal tissue
  EC50: 320 ± 20 nM
